Source: PubChem BioAssay (NCI)
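Protocol summary: plate cells (96-well), add compound at 5 concentrations, incubate 48 h, interpolate endpoints linearly. The concentration for 50% growth inhibition is given as GI50. TGI marks complete inhibition of growth.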

Assays:
Assay in all cases: NCI tumour cell line growth inhibition, 48 h
OVCAR-3 ovarian = tested on: OVCAR-3 ovarian
UO-31 renal = tested on: UO-31 renal
786-0 renal = tested on: 786-0 renal
LXFL 529 NSCLC = tested on: LXFL 529 NSCLC
SK-OV-3 ovarian = tested on: SK-OV-3 ovarian
SF-295 CNS = tested on: SF-295 CNS
DLD-1 colon = tested on: DLD-1 colon
HCC-2998 colon = tested on: HCC-2998 colon
MCF7 breast = tested on: MCF7 breast
HS 578T breast = tested on: HS 578T breast

Structure (SMILES)	TGI (OVCAR-3 ovarian) [µM]	TGI (UO-31 renal) [µM]	TGI (786-0 renal) [µM]	TGI (LXFL 529 NSCLC) [µM]	TGI (SK-OV-3 ovarian) [µM]	TGI (SF-295 CNS) [µM]	TGI (DLD-1 colon) [µM]	TGI (HCC-2998 colon) [µM]	GI50 (OVCAR-3 ovarian) [µM]	GI50 (UO-31 renal) [µM]	GI50 (786-0 renal) [µM]	GI50 (LXFL 529 NSCLC) [µM]	GI50 (SK-OV-3 ovarian) [µM]	GI50 (SF-295 CNS) [µM]	GI50 (DLD-1 colon) [µM]	GI50 (HCC-2998 colon) [µM]	TGI (MCF7 breast) [µM]	TGI (HS 578T breast) [µM]	GI50 (MCF7 breast) [µM]	GI50 (HS 578T breast) [µM]
O=C(Nc1ccc(Cl)cc1Cl)OC(Cn1cncn1)c1ccc(Cl)cc1Cl (stereo not drawn)	29.3	26	33.5	30.6	34.7	31.4	35	–	–	–	–	–	–	–	–	–	–	–	–	–
O=C(/C=C\c1cccc2ccccc12)c1ccc(Cl)cc1Cl	43.5	> 100	33.1	32.8	> 100	49.9	40.8	92	–	–	–	–	–	–	–	–	–	–	–	–
N#CC(C(=O)/C(=N\NC(N)=O)C(C#N)c1ccccc1)c1ccccc1 (stereo not drawn)	> 100	> 100	> 100	> 100	> 100	> 100	> 100	> 100	–	–	–	–	–	–	–	–	–	–	–	–
CC(=O)[C@H]1CCC2[C@@H]3CC=C4C[C@@H]([O-])CC[C@]4(C)C3CC[C@@]21C.CC(=O)[C@H]1CCC2[C@@H]3CC=C4C[C@@H]([O-])CC[C@]4(C)C3CC[C@@]21C.CC(=O)[CH-]C(=O)c1ccccc1.CC(=O)[CH-]C(=O)c1ccccc1.Cl.[Ti+4] (stereo partly drawn)	> 100	79.3	17.9	> 100	77.4	46.4	> 100	85.3	39.5	28.9	6.03	32.1	26.6	17.4	27.4	33.2	–	–	–	–
N/N=C(/Cc1nc2ccc(C(=O)c3ccccc3)cc2[nH]c1=O)C(=O)Nc1ccc([N+](=O)[O-])cc1[N+](=O)[O-]	–	> 100	> 100	> 100	> 100	> 100	–	> 100	–	–	–	> 100	–	> 100	–	> 100	–	–	–	–
Clc1cccc(C2N3CCCCC3[C@@H]3c4[nH]c5ccccc5c4CCN23)c1 (stereo partly drawn)	> 100	82	> 100	–	> 100	> 100	> 100	99.7	–	–	–	–	–	–	–	–	–	–	–	–
Cc1nc2c(o1)C(=Nc1ccccc1)c1nc(C)oc1C2=Nc1ccccc1	> 100	35.1	34.2	45.1	40.4	46.7	67.9	80.3	–	–	–	–	–	–	–	–	–	–	–	–
CN(/N=C/c1ccnc2ccccc12)c1c([N+](=O)[O-])cc([N+](=O)[O-])cc1[N+](=O)[O-]	> 100	> 100	> 100	> 100	> 100	> 100	> 100	> 100	–	–	–	–	–	–	–	–	–	–	–	–
Nc1ccccc1C(=O)CCC1C(=O)NC(=S)NC1=O	> 100	> 100	> 100	> 100	> 100	> 100	> 100	> 100	–	–	–	–	–	–	–	–	> 100	> 100	–	–
O=C(/C=C/c1cccc([N+](=O)[O-])c1)c1ccc([N+](=O)[O-])cc1	> 100	> 100	> 100	> 100	> 100	> 100	> 100	> 100	–	–	–	–	–	–	–	–	–	–	–	–
COC(=O)C1C(=O)O[C@@H](c2cc(OC)c(OC)cc2OC)C1C(=O)OC (mixture of isomers)	> 100	> 100	> 100	> 100	> 100	> 100	> 100	> 100	–	–	–	–	–	–	–	–	–	–	–	–
COc1ccc(S(=O)(=O)N(CC(=O)O)c2ccccc2)cc1	> 100	> 100	> 100	> 100	> 100	> 100	> 100	> 100	–	–	–	–	–	–	–	–	–	–	–	–
Clc1cccc(-c2nnc(-c3nn(-c4ccccc4)c4nc5ccccc5nc34)o2)c1	> 100	> 100	> 100	> 100	> 100	> 100	> 100	> 100	–	–	–	–	–	–	–	–	–	–	–	–
COC(=O)C1=CC2C=CC(C1C(=O)OC)C1C(C(=O)OC)=C(C(=O)OC)C(C(=O)OC)=C(C(=O)OC)C21OC (stereo not drawn)	> 100	> 100	> 100	> 100	> 100	> 100	> 100	> 100	–	–	–	–	–	–	–	–	–	–	–	–
CCN(CC)CCCC(C)N/C(=C1\C(=O)NC(=O)\C1=C(/NC(C)CCCN(CC)CC)c1cccc(OC)c1)c1cccc(OC)c1 (stereo not drawn)	3.2	1.49	2.64	–	3.92	1.78	–	1.61	1.12	0.733	0.833	–	1.31	0.813	–	0.845	3.56	3.22	1.03	1.11
CCNC(=O)OCc1c(COC(=O)NCC)c(-c2ccc(Cl)c(Cl)c2)n2c1CCC2	45.8	24.3	33.5	34.8	–	36.7	72.3	27.7	–	–	–	–	–	–	–	–	–	–	–	–
O=c1c(Cl)c(Cl)cnn1CCCl	11.9	10.7	25.3	3.1	21.7	31.4	3.29	9.39	–	–	–	–	–	–	–	–	–	12.8	–	–
